Data taken from patent publication US12201638B2, “Pharmaceutical compositions comprising (2S)-n-{(1S)-1-cyano-2-[4-(3-methyl-2-oxo-2,3-dihydro-1,3-benzoxazol-5-yl)phenyl]ethyl}-1,4-oxazepane-2-carboxamide” (ASTRAZENECA AB, priority 2018, dated 2025).

Assay: Excipient compatibility: accelerated stability of Compound A tablets (degradation by chromatography)
Assay type: physicochemical
Conditions: stored at 50/75 for 45 days
Description: Excipient compatibility experiments were designed as linear D-optimal designs with qualitative factors of two or more levels. The formulations used in these experiments can be directly compressed into tablets. For dry processing, three factors were evaluated, namely binary filler combination, choice of disintegrant and choice of lubricant. In the experimental design shown below (see Table 3) the effect of an HPMC-based film coat as well as the addition of colloidal silicon dioxide was evaluated using repeat corners.
Pure drug substance was included as a reference in all conditions.
This is shown in FIG. 2, where tablets stored at 50/75 for 45 days are compared with neat drug substance stored in identical conditions as well as a freshly prepared standard solution from the same drug substance batch. The chromatograms are stacked in order of degradation (and slightly shifted for clarity).
However, the general trends from the other conditions could still be seen. […] Based on this, 70/XX data was omitted from the shelf life prediction model.
Five different peaks were monitored at five different conditions. However, as discussed above, the 70/XX condition was excluded based on a probable conversion to Form B. Overall, Compound A in tablets containing glyceryl behenate appears to degrade to a slightly lesser degree than magnesium stearate.

## Cn1c(=O)oc2ccc(-c3ccc(C[C@@H](C#N)NC(=O)[C@@H]4CNCCCO4)cc3)cc21 [Compound A, (2S)-N-{(1S)-1-cyano-2-[4-(3-methyl-2-oxo-2,3-dihydro-1,3-benzoxazol-5-yl)phenyl]ethyl}-1,4-oxazepane-2-carboxamide]
  Degradation (overlaid chromatograms, FIG. 2): almost no difference
